According to patent US20230219965A1 (KSQ Therapeutics, Inc., priority 2020, published 2023):
Where two headings read alike, the source gives them in different places.

Experiments:
[1] = ADME solubility determination in PBS at pH 2.0 and pH 7.4; format: physicochemical; settings: phosphate buffered saline, 25 °C, thermodynamic from solid
Procedure, shortened: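 Solubility was read by LC-MS/MS on centrifuged supernatants, calibrated to a known-concentration standard and corrected for dilution. Compound, dried down from 10 mM DMSO stock, was equilibrated 24 h at 25° C with shaking in PBS at pH 2.0 or pH 7.4.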

USP1/UAF1 enzyme = USP1/UAF1 enzyme (Homo sapiens, UniProt O94782); experiment: USP1/UAF1 deubiquitination assay (ubiquitin-rhodamine 110 substrate); format: biochemical; settings: read-out: USP1 IC50 (Ub-Rho)
Chain of USP1/UAF1 enzyme (O94782 whole entry): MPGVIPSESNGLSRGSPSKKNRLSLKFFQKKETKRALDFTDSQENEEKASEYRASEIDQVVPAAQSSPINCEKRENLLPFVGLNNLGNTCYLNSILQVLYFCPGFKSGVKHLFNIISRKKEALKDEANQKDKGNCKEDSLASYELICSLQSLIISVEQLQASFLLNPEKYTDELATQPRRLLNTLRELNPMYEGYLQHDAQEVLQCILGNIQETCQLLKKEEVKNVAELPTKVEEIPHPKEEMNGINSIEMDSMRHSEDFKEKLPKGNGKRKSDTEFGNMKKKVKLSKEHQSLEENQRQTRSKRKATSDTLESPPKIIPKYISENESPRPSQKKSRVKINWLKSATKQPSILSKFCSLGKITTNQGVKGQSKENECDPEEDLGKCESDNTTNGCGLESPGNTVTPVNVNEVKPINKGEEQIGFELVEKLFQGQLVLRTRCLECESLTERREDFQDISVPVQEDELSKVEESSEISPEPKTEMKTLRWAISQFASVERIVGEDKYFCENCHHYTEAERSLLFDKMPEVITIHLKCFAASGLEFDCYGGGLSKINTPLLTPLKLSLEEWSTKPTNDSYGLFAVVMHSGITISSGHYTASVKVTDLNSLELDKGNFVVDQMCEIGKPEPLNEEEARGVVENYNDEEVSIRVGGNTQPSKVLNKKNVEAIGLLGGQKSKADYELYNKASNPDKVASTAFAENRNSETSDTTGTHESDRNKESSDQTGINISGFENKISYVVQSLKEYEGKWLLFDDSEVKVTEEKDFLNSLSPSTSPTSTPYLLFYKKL
Chain of USP1/UAF1 enzyme (Q8TAF3 whole entry partner): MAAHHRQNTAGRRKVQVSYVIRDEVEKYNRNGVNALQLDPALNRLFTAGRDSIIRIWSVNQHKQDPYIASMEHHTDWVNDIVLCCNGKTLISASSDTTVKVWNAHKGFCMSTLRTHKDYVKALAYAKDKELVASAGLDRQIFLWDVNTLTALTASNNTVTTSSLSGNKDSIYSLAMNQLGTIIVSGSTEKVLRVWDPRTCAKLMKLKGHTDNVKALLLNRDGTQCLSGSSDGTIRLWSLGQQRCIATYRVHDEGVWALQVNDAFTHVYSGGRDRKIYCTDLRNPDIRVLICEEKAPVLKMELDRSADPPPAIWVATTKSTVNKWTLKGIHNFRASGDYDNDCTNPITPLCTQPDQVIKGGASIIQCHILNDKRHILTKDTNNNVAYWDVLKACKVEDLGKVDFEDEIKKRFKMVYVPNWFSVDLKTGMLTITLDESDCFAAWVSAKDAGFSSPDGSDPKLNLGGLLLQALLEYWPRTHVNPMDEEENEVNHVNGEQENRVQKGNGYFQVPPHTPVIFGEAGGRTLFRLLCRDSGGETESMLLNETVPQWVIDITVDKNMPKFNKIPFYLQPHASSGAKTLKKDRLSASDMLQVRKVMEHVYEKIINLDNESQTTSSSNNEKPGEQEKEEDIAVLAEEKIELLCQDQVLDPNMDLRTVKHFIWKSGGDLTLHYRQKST
Procedure, shortened: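 Cleavage of 150 nM ubiquitin-rhodamine 110 by 0.05 nM USP1/UAF1 was followed as fluorescence (Ex480/Em540, kinetic, 30 min) in Tris-HCl pH 7.8 buffer with EDTA, BSA, DTT and Tween-20. Compounds, top 10 μM, were preincubated with enzyme 10 min; % inhibition against no-enzyme and DMSO wells gave four-parameter IC50s.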

[2] = Liver microsomal metabolic stability, rat liver microsomes (RLM); settings: rat, liver microsomes, t1/2 (min) in RLM, 1 μM compound, 1 mg/mL microsomes, NADPH
[3] = Liver microsomal metabolic stability, human liver microsomes (HLM); settings: human, liver microsomes
Method: Samples were prepared by adding 222.5 μL of a master solution (100 mM phosphate buffer and 1 mg/mL liver microsomes (HLM or RLM)) and 25 μL of a 10 mM NADPH solution to incubation plates, which were then warmed for 10 min. Each compound was separately dissolved in DMSO to prepare 10 mM stock solutions, which were then diluted to 100 μM with acetonitrile. A reaction was started by adding 2.5 μL of the 100 μM solution of each compound to separate incubation plates such that the final concentration of for each compound in each plate was 1 μM.
25 μL aliquots of each sample were taken at 0.5, 5, 10, 15, 20 and 30 minutes, and the reaction was stopped by adding 5 volumes of cold acetonitrile with IS (100 nM alprazolam, 200 nM caffeine and 100 nM tolbutamide). The samples were then centrifuged at 3,220 G for 30 minutes, and 100 μL of the supernatant fluid was mixed with 100 μL of ultra-pure H2O.
The samples were then analyzed by LC-MS/MS. Peak areas were determined from extracted ion chromatograms. Slope values (k) were determined by linear regression of the natural logarithm of the remaining percentage of the compound vs. incubation time curve. The in vitro half-life (in vitro t1/2) was determined from the slope value using the following equation:

[4] = test system: Ub-PCNA levels in the nucleus of ES2 cells (USP1 activity); experiment: ES2 Ub-PCNA immunofluorescence (IF) assay; format: cell-based; settings: Homo sapiens, ES-2; ES2 cells, 3 hours, Ub-PCNA immunofluorescence; read-out: USP1 IC50 (Ub-PCNA)
Procedure, shortened: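 AC50 derived from percent Ub-PCNA-positive nuclei, positivity set by a 95% cutoff from untreated-well intensities. Readout by imaging immunofluorescence (anti-Ub-PCNA, DAPI nuclear mask) after methanol fixation. Compound exposure: 3 h at 37° C, 0.3% DMSO final, on cells plated overnight.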

[5] = pH 2, aqueous buffer, PBS pH 2.0, 25° C., read-out: Solubility at pH 2.0
[6] = pH 7.4, aqueous buffer, PBS pH 7.4, 25° C., read-out: Solubility at pH 7.4

SMILES	solubility at 24 h [1, 5] [µM]	solubility at 24 h [1, 6] [µM]	IC50 (USP1/UAF1 enzyme) [nM]	half-life at 1 μM [2] [min]	half-life at 1 μM [3] [min]	IC50 [4] [nM]
CCn1cc(C(F)(F)F)nc1-c1ccc([C@H](C)N2C(=O)CCn3nc(-c4c(Cl)cnn4C(C)C)nc32)cc1F [Example 181]	< 10	< 10	< 100	> 25	< 25	< 100
CCn1cc(C(F)(F)F)nc1-c1ccc([C@@H](C)N2C(=O)CCn3nc(-c4c(Cl)cnn4C(C)C)nc32)cc1F [Example 182]	< 10	< 10	< 100	< 25	< 25	< 100
CCn1cc(C(F)(F)F)nc1-c1ccc(CN2C(=O)CCn3nc(-c4c(Cl)cnn4C(C)C)nc32)cn1 [Example 186]	< 10	< 10	< 100	> 25	> 25	100 to 500
COc1ncnc(C2CC2)c1-c1nc2n(n1)CCC(=O)N2[C@@H](C)c1ccc(-c2nc(C(F)(F)F)cn2C(C)C)cc1 [Example 188]	≥ 10	≥ 10	100 to 500	> 25	> 25	< 100
COc1ncnc(C2CC2)c1-c1nc2n(n1)CCC(=O)N2[C@H](C)c1ccc(-c2nc(C(F)(F)F)cn2C(C)C)cc1 [Example 189]	≥ 10	≥ 10	< 100	> 25	> 25	< 100
CCn1cc(C(F)(F)F)nc1-c1ccc([C@@H](C)N2C(=O)CCn3nc(-c4c(OC)ncnc4C4CC4)nc32)cc1F [Example 191]	< 10	< 10	< 100	< 25	> 25	< 100
CCn1cc(C(F)(F)F)nc1-c1ccc([C@H](C)N2C(=O)CCn3nc(-c4c(Cl)cnn4C(C)C)nc32)cc1 [Example 193]	< 10	< 10	< 100	< 25	< 25	< 100
CCn1cc(C(F)(F)F)nc1-c1ccc([C@@H](C)N2C(=O)CCn3nc(-c4c(Cl)cnn4C(C)C)nc32)cc1 [Example 194]	< 10	< 10	< 100	< 25	< 25	< 100

Continued, values first:

solubility at 24 h [1, 5] [µM]	solubility at 24 h [1, 6] [µM]	IC50 (USP1/UAF1 enzyme) [nM]	half-life at 1 μM [2] [min]	half-life at 1 μM [3] [min]	IC50 [4] [nM]	SMILES
< 10	< 10	< 100	< 25	< 25	100 to 500	CCn1cc(C(F)(F)F)nc1-c1ccc([C@@H](C)N2C(=O)CCn3nc(-c4c(Cl)cnn4C(C)C)nc32)cc1OC [Example 180]
≥ 10	≥ 10	< 100	> 25	< 25	< 100	CCn1cc(C(F)(F)F)nc1-c1ccc([C@H](C)N2C(=O)CCn3nc(-c4c(OC)ncnc4C4CC4)nc32)cc1 [Example 183]
≥ 10	≥ 10	< 100	< 25	> 25	< 100	CCn1cc(C(F)(F)F)nc1-c1ccc([C@@H](C)N2C(=O)CCn3nc(-c4c(OC)ncnc4C4CC4)nc32)cc1 [Example 184]
≥ 10	≥ 10	< 100	> 25	> 25	< 100	CCn1cc(C(F)(F)F)nc1-c1ccc([C@H](C)N2C(=O)CCn3nc(-c4c(OC)ncnc4C4CC4)nc32)cc1F [Example 190]
≥ 10	≥ 10	100 to 500	> 25	> 25	< 100	COc1ncnc(C2CC2)c1-c1nc2n(n1)CCC(=O)N2Cc1ccc(-c2nc(C(F)(F)F)cn2C(C)CF)cc1 (stereo not drawn) [Example 195]
